Data as given in paper PMC10495264 (Nature Cell Biology, 2023).

System: TORC1
Test: TORC1 activity in yeast cells, p-Sch9^T737/Sch9 immunoblot
Type: cell-based, Saccharomyces cerevisiae
Conditions: wt Ctrl = 1

NC(=O)CC[C@H](N)C(=O)O [Gln, glutamine] was tested, and the “p-Sch9(T737)/Sch9, Mean” value (Acc1-GFP yeast, nitrogen-starved then +Gln 1 min, ED Fig. 2e) was 0.2777, the “p-Sch9(T737)/Sch9, Mean” value (Acc1-GFP yeast, nitrogen-starved then +Gln 2 min, ED Fig. 2e) was 0.2567 and the “p-Sch9(T737)/Sch9, Mean” value (Acc1-GFP yeast, nitrogen-starved then +Gln 5 min, ED Fig. 2e) was 0.172. The “p-Sch9(T737)/Sch9, Mean” value (acc1E392K yeast, nitrogen-starved then +Gln 1 min, ED Fig. 1g) was 0.2184, the “p-Sch9(T737)/Sch9, Mean” value (acc1E392K yeast, nitrogen-starved then +Gln 2 min, ED Fig. 1g) was 0.4052 and the “p-Sch9(T737)/Sch9, Mean” value (acc1E392K yeast, nitrogen-starved then +Gln 5 min, ED Fig. 1g) was 0.172. For the same compound, the “p-Sch9(T737)/Sch9, Mean” value (acc1E392K yeast, nitrogen-starved then +Gln 15 min, ED Fig. 1g) was 0.07897, the “p-Sch9(T737)/Sch9, Mean” value (acc1E392K,S1157A yeast, nitrogen-starved then +Gln 1 min, ED Fig. 1g) was 0.2597 and the “p-Sch9(T737)/Sch9, Mean” value (acc1E392K,S1157A yeast, nitrogen-starved then +Gln 2 min, ED Fig. 1g) was 0.4125. The “p-Sch9(T737)/Sch9, Mean” value (acc1E392K,S1157A yeast, nitrogen-starved then +Gln 5 min, ED Fig. 1g) was 0.1831, the “p-Sch9(T737)/Sch9, Mean” value (acc1E392K,S1157A yeast, nitrogen-starved then +Gln 15 min, ED Fig. 1g) was 0.0777 and the “p-Sch9(T737)/Sch9, Mean” value (acc1S1157A yeast, nitrogen-starved then +Gln 1 min, ED Fig. 1g) was 0.08981. For the same compound, the “p-Sch9(T737)/Sch9, Mean” value (acc1S1157A yeast, nitrogen-starved then +Gln 1 min, ED Fig. 2e) was 0.1842, the “p-Sch9(T737)/Sch9, Mean” value (acc1S1157A yeast, nitrogen-starved then +Gln 1 min, Fig. 2e) was 0.5322 and the “p-Sch9(T737)/Sch9, Mean” value (acc1S1157A yeast, nitrogen-starved then +Gln 2 min, ED Fig. 1g) was 0.2298. For the same compound, the “p-Sch9(T737)/Sch9, Mean” value (acc1S1157A yeast, nitrogen-starved then +Gln 2 min, ED Fig. 2e) was 0.2323, the “p-Sch9(T737)/Sch9, Mean” value (acc1S1157A yeast, nitrogen-starved then +Gln 2 min, Fig. 2e) was 0.5731 and the “p-Sch9(T737)/Sch9, Mean” value (acc1S1157A yeast, nitrogen-starved then +Gln 5 min, ED Fig. 1g) was 0.1433. For the same compound, the “p-Sch9(T737)/Sch9, Mean” value (acc1S1157A yeast, nitrogen-starved then +Gln 5 min, ED Fig. 2e) was 0.1614, the “p-Sch9(T737)/Sch9, Mean” value (acc1S1157A yeast, nitrogen-starved then +Gln 5 min, Fig. 2e) was 0.2159 and the “p-Sch9(T737)/Sch9, Mean” value (acc1S1157A yeast, nitrogen-starved then +Gln 15 min, ED Fig. 1g) was 0.0801. For the same compound, the “p-Sch9(T737)/Sch9, Mean” value (acc1S1157A yeast, nitrogen-starved then +Gln 15 min, Fig. 2e) was 0.1147, the “p-Sch9(T737)/Sch9, Mean” value (acc1S1157A-GFP yeast, nitrogen-starved then +Gln 1 min, ED Fig. 2e) was 0.2949 and the “p-Sch9(T737)/Sch9, Mean” value (acc1S1157A-GFP yeast, nitrogen-starved then +Gln 2 min, ED Fig. 2e) was 0.2508. For the same compound, the “p-Sch9(T737)/Sch9, Mean” value (acc1S1157A-GFP yeast, nitrogen-starved then +Gln 5 min, ED Fig. 2e) was 0.1919, the “p-Sch9(T737)/Sch9, Mean” value (wt yeast, nitrogen-starved then +Gln 1 min, n = 3, ED Fig. 2e) was 0.3518 and the “p-Sch9(T737)/Sch9, Mean” value (wt yeast, nitrogen-starved then +Gln 1 min, n = 4, ED Fig. 1g) was 0.1938. For the same compound, the “p-Sch9(T737)/Sch9, Mean” value (wt yeast, nitrogen-starved then +Gln 2 min, Fig. 2e) was 0.8468, the “p-Sch9(T737)/Sch9, Mean” value (wt yeast, nitrogen-starved then +Gln 2 min, n = 3, ED Fig. 2e) was 0.2928 and the “p-Sch9(T737)/Sch9, Mean” value (wt yeast, nitrogen-starved then +Gln 2 min, n = 4, ED Fig. 1g) was 0.4107. For the same compound, the “p-Sch9(T737)/Sch9, Mean” value (wt yeast, nitrogen-starved then +Gln 5 min, Fig. 2e) was 0.2605, the “p-Sch9(T737)/Sch9, Mean” value (wt yeast, nitrogen-starved then +Gln 5 min, n = 3, ED Fig. 2e) was 0.215 and the “p-Sch9(T737)/Sch9, Mean” value (wt yeast, nitrogen-starved then +Gln 5 min, n = 4, ED Fig. 1g) was 0.1743. For the same compound, the “p-Sch9(T737)/Sch9, Mean” value (wt yeast, nitrogen-starved then +Gln 15 min, Fig. 2e) was 0.1412 and the “p-Sch9(T737)/Sch9, Mean” value (wt yeast, nitrogen-starved then +Gln 15 min, n = 4, ED Fig. 1g) was 0.07833.
